In patent US8673864B2, “Mangiferin-berberine salt, manufacturing method and use thereof” (Hainan Deze Drug Research Co., Ltd., priority 2009, dated 2014):

Assays:
[1] = system: human hepatoma cell line Bel-7402; test: Chemosensitizing effect on tumor cells (MTT cytotoxicity); format: cell-based; details: 72 h
Method: Mangiferin-berberine salt (BM) was obtained by the method of embodiments as above. Cisplatin (DDP), adriamycin (ADM) and taxol were purchased from the market. Samples were dissolved in DMSO.
DMSO group, BM group (20 μmol/L), DDP group (1 μmol/L), ADM group (1 μmol/L), TAXOL group (1 μmol/L), BM (20 μmol/L)+DDP (1 μmol/L) group, BM (20 μmol/L)+ADM (1 μmol/L) group, BM (20 μmol/L)+TAXOL (1 μmol/L) group.
In accordance with 10^3-10^4/well, cultured human hepatoma cell line Bel-7402 200 μl per well were inoculated into 96-well cell culture plate, the samples were added after 24 hours. For those groups which are composed of the two samples, after mangiferin-berberine salt and cells were cultured together for 3 h, DDP or ADM or TAXOL were added, cultured for 72 h. Finally cell toxicity was determined by tetrazolium salt reduction (MTT). Experiments were repeated twice.

[2] = Precipitation of the acidic solutions at room temperature within 24 hours; format: physicochemical; details: for precipitate on standing: room temperature, 12 hours
Method: (§1) As the pH of human gastric juice is 1-3, the above properties of mangiferin-berberine salt can be well dissolved in gastric juice, which is very conducive to the absorption of drugs in the body. Any ratio mangiferin-berberine composition can not increase the solubility in the acidic water.
Mark all above the mangiferin-berberine salt solutions, places them at room temperature, observe the phenomenon within 24 hours.

[3] = system: dementia rats; test: Effect on Aβ1-40-induced dementia rats (Morris water maze); format: in vivo; details: versus model group
Method: SD male rats, SPF, 250˜300 g, free drinking water and eating food, before the experiment in a lab environment adapted for 2-3d, the temperature of the laboratory was controlled at 25° C., relative humidity was 40%-80%.
Sham surgery rats group (control group, n=10) were injected the saline of an equal volume in the hippocampus; model rats group (n=10) were treated by Aβ1-40; mangiferin-berberine salt low dose group (20 mg/kg, n=10, BML); mangiferin-berberine salt middle dose group (40 mg/kg, n=10, BMM); mangiferin-berberine salt high dose group (80 mg/kg, n=10, BMH).
Test samples or vehicle control was given orally for 4 weeks, one week before modeled. Maze training period, administrated in 0.5 h before training.
Injected […] into the hippocampus of rats to establish animal model of AD. As follows: […]
Spatial learning and memory tests: Morris water maze method. Platform located in the northeast quadrant of the middle of the maze; the water level is 1.5 cm above the platform; the temperature of water was maintained at 19° C.˜20° C.; rats were continuously training for 5d, twice a day; we set the maximum swimming time of 70s, recorded the time that rats found the platform (latent period, EL) by stopwatch.

[4] = system: TNF-α; test: Serum TNF-α in rheumatoid arthritis rat (ELISA); format: in vivo, rats; details: versus model group
Method: (§2) Wistar rats, female, 100±20 g. Acid-soluble Bovine-derived collagen type II (Collagen II) and Freund's incomplete adjuvant was purchased from Sigma. TNF-α kit was purchased from Nanjing Jiancheng Biological Engineering Institute.
(§3) The Acid-soluble Bovine-derived collagen type II (C II) with Freund's incomplete adjuvant, was made up to 2.5 mg/ml emulsion, Every rat was injected emulsion containing […] by intradermal in the right rear paw in order to inflame.
(§4) Normal rats group (control group, n=10); model rats group (n=10); mangiferin-berberine salt low dose group (10 mg/kg, n=10, BML); mangiferin-berberine salt middle dose group (20 mg/kg, n=10, BMM); mangiferin-berberine salt high dose group (40 mg/kg, n=10, BMH); Dexamethasone Sodium Phosphate group (0.1 mg/kg, Dexa, n=10).
(§5) Two weeks after primary immunization, test samples or vehicle control was given orally for 4 weeks. Normal and model rats group were given the saline of an equal volume.
4.2 Cytokines: The blood specimens were taken from femoral artery at the end of the experiment, and serum was extracted, then frozen. TNF-α was measured according to the instructions of ELISA kit.

[5] = system: KK-ay mice; test: Effect on KK-ay mice (glucose, lipid, insulin, UAER, liver enzymes); format: in vivo; details: 40 mg/kg orally for 30 days, versus model group
Method: Mangiferin-berberine salt was obtained by the method of examples as above. Mangiferin-berberine salt was suspended with 3‰ sodium carboxymethyl cellulose before use. Rosiglitazone hydrochloride was purchased from Zhejiang wanma pharmaceutical Co., Ltd.
KK-ay mice, 16 weeks age, male.
KK-ay mice group (n=10); mangiferin-berberine salt low dose group (20 mg/kg, n=10, BML); mangiferin-berberine salt middle dose group (40 mg/kg, n=10, BMM); mangiferin-berberine salt high dose group (80 mg/kg, n=10), BMH metformin group[500 mg/kg, n=10]. Test samples or vehicle control was given orally for 30 days. KK-ay mice group were given vehicle.
The blood specimens were taken at the end of the experiment. Plasma glucose (GLU, mmol/L), lipid [triglycerides (TG, mmol/L), total cholesterol (TC, mmol/L), low density lipoprotein (LDL, mmol/L), high density lipoprotein (HDL, mmol/L)], liver enzyme [ALT(U/L) and AST(U/L)] were determined using GF-D800 semi-auto chemist which was purchased from Shandong Gaomi Caihong Analytical Instrument Co., Ltd.
Insulin: Radioimmunoassays (RIA), γ counter counts. insulin RIA Kit was purchased from Shandong Weifang City three-dimensional (3V) Biological Company. Urinary albumin. Collected urine for 24 h by metabolic cages, and recorded the output of urine. Urine was centrifuged, supernatant was taken, it was saved at −80° C. Free urinary were collected weekly Monday 13:00 by tail raise reflection. Assay urinary albumin by competitive ELISA, calculate the urinary albumin excretion rate (urinary albumin excretion rate=urinary albumin concentration (mg/L)×urine volume (ml)/total collection time (minutes)=mg/min, UAER), the units of figure is mg/24 h.
The results have been calculated as mean±SD ( x±SD) and comparisons of the data have been done by t-test.

[6] = system: AMPK; test: Activation of AMPK in L6 cells (Western blot, phospho-AMPK Thr172); format: cell-based, rat; details: 1.25-5 μmol/L, 3 h, dose-dependent
Method: (§6) Mangiferin-berberine salt that is obtained by the method of embodiments as above dissolves in DMSO. Before use it is diluted by culture medium or HBS. The ultimate concentration of DMSO is less than 0.2%.
(§7) The rat L6 cell line was obtained from the ATCC. HG-DMEM was from GIBCO™. Fetal bovine serum (FBS) was purchased from Hyclone. Anti-AMPK, anti-ACC, antiphospho-AMPK (Thr172), antiphospho-ACC (ser79) polyclonal antibodies were from Cell Signal Technology.
(§8) L6 cells were grown in HG-DMEM containing 10% (v/v) FBS, 100 units/ml penicillin and 100 U/ml streptomycin in a humidified atmosphere of 5% CO2 at 37° C. When the cells covered 60%, the medium was switched to HG-DMEM with 2% FBS and the culture medium was replaced every two days until that the cells covered about 90%.
(§9) Cells in 6-well plates were starved in serum-free HG-DMEM, and then samples were added into serum-free HG-DMEM; the concentration of DMSO is 0.2%. The samples incubated for 3 h in the cells. […]
(§10) Samples were electrophoresed on 10% SDS-polyacrylamide gels, and transferred to PVDF membranes under 100V and 1-2 h in the transmembrane instrument. Protein in the gel was transferred to […] under the state of half dry, and the band was determined by Ponceau S (Ponceau S). […]

[7] = Accelerated stability test, content by HPLC; format: physicochemical
Method: Put several parts of mangiferin-berberine salt into glass bottles, seal, set inside drug stability chamber, set accelerated testing conditions to: 40° C.±2° C./75% RH+5% RH. At 0 and 1 and 2 months, sample, determine the content of mangiferin-berberine salt by HPLC.

[8] = Solubility of mangiferin-berberine salt in water; format: physicochemical
Method: Its chemical structure is as follows:
5 mg mangiferin-berberine salt powder which is weighed up accurately is put into 50 ml distilled water under 25° C.±2° C., the solution is shaken strongly 30 seconds every 5 minutes. There are solute particles in 30 minutes. The water solubility of mangiferin-berberine salt is less than 0.1 mg/ml. Mangiferin-berberine salt is hardly solubility substance in water.

[9] = system: rheumatoid arthritis rat; test: Effect on rheumatoid arthritis rat (collagen type II model), foot swelling; format: in vivo, rats; details: versus model group
Method: as §2, §3, §4, §5
Foot swelling: Measurement the volume of right hind foot by capillary enlarge measure method, calculated swelling growth percentage [(value after administration−value before administration)/value before administration]×100%.

[10] = system: ACC; test: Phosphorylation of ACC in L6 cells (Western blot, phospho-ACC ser79); format: cell-based, rat; details: 1.25-5 μmol/L, 3 h, dose-dependent
Method: as §6, §7, §8, §9, §10

[11] = Solubility in different pH water (hydrochloric acid adjusted); format: physicochemical
Method: as §1
Take pure water; add hydrochloric acid to adjust pH to 1 and 3 and 5 separately. Take the water 50 ml of different pH; weigh up accurately 50 mg mangiferin-berberine salt powder, put into the 50 ml water as above, shake and observe dissolved phenomena.
Take the water 50 ml of different pH 1 and 3; weigh up accurately 100 mg mangiferin-berberine salt powder, put into the 50 ml water as above, shake and observed dissolved phenomena.
Take the water 50 ml of pH 1; weigh up accurately 200 mg mangiferin-berberine salt powder, put into the 50 ml water as above, shake and observed dissolved situation.
Take the water 50 ml of pH 1 for three copies; weigh up accurately 50 mg mangiferin and berberine composition powder (the molecular ratio of mangiferin and berberine is 1:1, 1:3, 1:5), put into the 50 ml water as above separately, shake and observed dissolved phenomena. The trace of the mangiferin and berberine compositions that include all ratios as above can dissolve.

[12] = high dose (40 mg/kg) orally for 4 weeks
[13] = middle dose (20 mg/kg) orally for 4 weeks

Substance: mangiferin-berberine salt
- cytotoxicity combined with ADM versus ADM alone ([1]; Bel-7402, BM 20 μmol/L 3 h before ADM 1 μmol/L): significantly higher
- cytotoxicity combined with DDP versus DDP alone ([1]; Bel-7402, BM 20 μmol/L 3 h before DDP 1 μmol/L): significantly higher
- cytotoxicity combined with TAXOL versus TAXOL alone ([1]; Bel-7402, BM 20 μmol/L 3 h before TAXOL 1 μmol/L): significantly higher
- precipitate on standing ([2]; pH 1, 4 mg/ml): more precipitate
- precipitation in acid solution ([2]; pH 1-3, concentration below 2 mg/ml, within 12 hours): precipitation is only traces
- precipitation in acid solution ([2]; pH 1-3, concentration greater than 4 mg/ml): precipitates soon after it dissolves
- precipitate on standing ([2]; pH 1 and 3, 1 mg/ml and 2 mg/ml): trace precipitate
- EL (latent period) of fifth day, Morris water maze ([3]; high dose (80 mg/kg) orally for 4 weeks): significantly reduced
- EL (latent period) of fifth day, Morris water maze ([3]; middle dose (40 mg/kg) orally for 4 weeks): significantly reduced
- secretion of cytokine TNF-α [4, 12]: significantly inhibited
- secretion of cytokine TNF-α [4, 13]: significantly inhibited
- INS [5]: significantly improves
- ISI [5]: significantly improves
- UAER [5]: significantly improves
- blood glucose [5]: significantly improves
- lipid [5]: significantly improves
- liver enzymes [5]: significantly improves
- phosphorylation of AMPK [6]: increases significantly
- content of mangiferin-berberine salt by HPLC ([7]; 40° C.±2° C./75% RH+5% RH, sealed glass bottles, 0, 1 and 2 months): do not significantly change
- shelf time at room temperature ([7]; suggested from the accelerated test): > 1 year
- water solubility ([8]; 5 mg in 50 ml distilled water, 25° C.±2° C., 30 minutes): less than 0.1 mg/ml
- solubility in boiling water ([8]; boiling water): slightly soluble in boiling water
- solubility in water ([8]; water): Almost insoluble in water
- paw swelling [9, 12]: significantly inhibited
- paw swelling [9, 13]: significantly inhibited
- phosphorylation of ACC [10]: increases significantly
- dissolved phenomena ([11]; 50 mg in 50 ml water, pH 1): dissolved rapidly in the water of pH 1 in a few seconds
- dissolved phenomena ([11]; 50 mg in 50 ml water, pH 3): dissolved in the water of pH 3 in five minutes
- dissolved phenomena ([11]; 50 mg in 50 ml water, pH 5): did not dissolve completely
- dissolved phenomena ([11]; 100 mg in 50 ml water, pH 1): dissolved in the water of pH 1 in a minute
- dissolved phenomena ([11]; 100 mg in 50 ml water, pH 3): did not dissolve completely
- dissolved situation ([11]; 200 mg in 50 ml water, pH 1): can dissolve in the water of pH 1, but there is precipitation soon in the solution
- solubility in strong acid solution ([11]; strong acid solution, the smaller the pH, the better it dissolves): dissolves in strong acid solution
